Laboratory results published in patent publication US20060030566A1, “Novel quinoxalinone norepinephrine reuptake inhibitors for the treatment of central nervous system disorders” (Warner-Lambert Company, LLC, priority 2004, published 2006).
Counter-ions that a name gives are not always drawn.

How the values were obtained:
[1] = biological target: T1, human norepinephrine transporter (Homo sapiens, UniProt P23975); test: hNET receptor binding ([125I]-RTI-55 radioligand binding, membranes of transfected HEK-293 cells); details: 50 pM [125I]-RTI-55, HEK-293 cell membranes, 90 min at room temperature; IC50 converted to Ki by Cheng-Prusoff equation
T1 construct: host or cells: HEK-293
Text: The ability of the compounds of this invention to bind to the hNET and serotonin SERT receptor can be determined using conventional radioligand receptor binding assays. The receptors can be heterologously expressed in cell lines and experiments conducted in membrane preparations from the cell lines using procedures outlined below. IC50 concentrations can be determined by nonlinear regression of concentration-dependent reduction in specific binding. The Cheng-Prussoff equation can be used to convert the IC50 to Ki concentrations.
Cell pastes of HEK-293 cells transfected with the human norepinephrine transporter were supplied by the Pfizer Ann Arbor Protein Expression and Production group. Pellets were resuspended in 400 to 700 ml of Krebs-HEPES assay buffer (25 mM HEPES, 122 mM NaCl, 3 mM KCl, 1.2 mM MgSO4, 1.3 mM CaCl2, and 11 mM glucose, pH 7.4) with a Polytron homogenizer at setting 7 for 30 sec. Aliquots of membranes (5 mg/ml protein) were stored in liquid nitrogen until used.
The binding assay was set up in Beckman deep-well polypropylene plates with a total volume of 250 μl containing: drug (10^−5M to 10^−12M), cell membranes, and 50 pM [^125I]-RTI-55 (Perkin Elmer, NEX-272; specific activity 2200 Ci/mmol). The reaction was incubated by gentle agitation for 90 min at room temperature and was terminated by filtration through Whatman GF/C filter plates using a Brandel 96-well plate harvester. Scintillation fluid (100 μl) was added to each well, and bound [^125I]-RTI-55 was determined using a Wallac Trilux Beta Plate Counter. Test compounds were run in duplicate, and specific binding was defined as the difference between binding in the presence and absence of 10 μM desipramine.
Excel and GraphPad Prism software were used for data calculation and analysis. IC50 values were converted to Ki values using the Cheng-Prusoff equation.

T1 sequence (P23975 whole entry): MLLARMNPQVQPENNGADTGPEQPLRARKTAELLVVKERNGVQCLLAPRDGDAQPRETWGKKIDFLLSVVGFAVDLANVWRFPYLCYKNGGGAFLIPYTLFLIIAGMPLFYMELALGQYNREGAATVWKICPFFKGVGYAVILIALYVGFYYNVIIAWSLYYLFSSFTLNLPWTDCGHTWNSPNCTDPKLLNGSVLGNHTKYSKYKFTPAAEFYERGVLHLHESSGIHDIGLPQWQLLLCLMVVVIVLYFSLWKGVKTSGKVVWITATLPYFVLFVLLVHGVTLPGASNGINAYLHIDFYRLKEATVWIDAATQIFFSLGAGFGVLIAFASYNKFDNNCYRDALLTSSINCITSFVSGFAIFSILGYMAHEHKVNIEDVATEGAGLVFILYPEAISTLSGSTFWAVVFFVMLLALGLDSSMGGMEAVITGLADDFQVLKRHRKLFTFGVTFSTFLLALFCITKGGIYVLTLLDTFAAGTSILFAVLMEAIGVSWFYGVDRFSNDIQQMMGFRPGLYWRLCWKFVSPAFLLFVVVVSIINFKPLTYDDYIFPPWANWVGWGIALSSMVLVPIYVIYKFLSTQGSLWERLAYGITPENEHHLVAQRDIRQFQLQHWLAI

Row | Ki [1] | melting point | SMILES
1 | 70 nM | – | CC(C)n1c(=O)c(N2CCCNCC2)nc2ccccc21 [Example 15, 3-[1,4]Diazepan-1-yl-1-isopropyl-1H-quinoxalin-2-one Maleate]
2 | 97 nM | – | Cc1ccc(-n2c(=O)c(N3CCCNCC3)nc3ccccc32)cc1 [Example 13, 3-[1,4]Diazepan-1-yl-1-p-tolyl-1H-quinoxalin-2-one Maleate]
3 | 12 nM | 150 to 152 °C | O=c1c(N2CCNCC2)nc2cc(F)ccc2n1-c1ccccc1 [Example 1, 6-Fluoro-1-phenyl-3-piperazin-1-yl-1H-quinoxalin-2-one]
4 | 59 nM | 142 to 143 °C | O=c1c(N2CCNCC2)nc2ccc(F)cc2n1-c1ccccc1 [Example 8, 7-Fluoro-1-phenyl-3-piperazin-1-yl-1H-quinoxalin-2-one]
5 | – | 147 to 149 °C | CC(C)n1c(=O)c(N2CCCNCC2)nc2ccccc21 (as salt: maleate) [Example 15, 3-[1,4]Diazepan-1-yl-1-isopropyl-1H-quinoxalin-2-one Maleate]
6 | 69 nM | 151 to 153 °C | Cc1ccccc1-n1c(=O)c(N2CCNCC2)nc2ccccc21 [Example 5, 3-Piperazin-1-yl-1-o-tolyl-1H-quinoxalin-2-one]
7 | 15 nM | 146 to 147 °C | O=c1c(N2CCNCC2)nc2cc(F)ccc2n1-c1c(F)cccc1F [Example 10, 1-(2,6-Difluoro-phenyl)-6-fluoro-3-piperazin-1-yl-1H-quinoxalin-2-one]
8 | – | 159 to 161 °C | O=c1c(N2CCCNCC2)nc2ccccc2n1-c1ccccc1Cl (as salt: maleate) [Example 11, 1-(2-Chloro-phenyl)-3-[1,4]diazepan-1-yl-1H-quinoxalin-2-one Maleate]
9 | 60 nM | 128 to 129 °C | O=c1c(N2CCCNCC2)nc2ccccc2n1-c1cccc(F)c1 [Example 12, 3-[1,4]Diazepan-1-yl-1-(3-fluoro-phenyl)-1H-quinoxalin-2-one]
10 | 44 nM | 135 to 137 °C | O=c1c(N2CCNCC2)nc2ccccc2n1-c1ccccc1Cl [Example 4, 1-(2-Chloro-phenyl)-3-piperazin-1-yl-1H-quinoxalin-2-one]
11 | – | 199 to 200 °C | Cc1ccc(-n2c(=O)c(N3CCCNCC3)nc3ccccc32)cc1 (as salt: maleate) [Example 13, 3-[1,4]Diazepan-1-yl-1-p-tolyl-1H-quinoxalin-2-one Maleate]
12 | 38 nM | 149 to 150 °C | O=c1c(N2CCNCC2)nc2ccccc2n1-c1cccc(F)c1 [Example 6, 1-(3-Fluoro-phenyl)-3-piperazin-1-yl-1H-quinoxalin-2-one]
13 | 21 nM | – | O=c1c(N2CCNCC2)nc2ccccc2n1-c1ccccc1 [Example 2, 1-Phenyl-3-piperazin-1-yl-1H-quinoxalin-2-one Hydrochloride]
14 | – | 261 to 263 °C | O=c1c(N2CCNCC2)nc2ccccc2n1-c1ccccc1F (as salt: hydrochloride) [Example 3, 1-(2-Fluoro-phenyl)-3-piperazin-1-yl-1H-quinoxalin-2-one Hydrochloride]
15 | 41 nM | – | O=c1c(N2CCCNCC2)nc2ccccc2n1-c1ccccc1Cl [Example 11, 1-(2-Chloro-phenyl)-3-[1,4]diazepan-1-yl-1H-quinoxalin-2-one Maleate]
16 | 36 nM | – | Cc1ccc(-n2c(=O)c(N3CCNCC3)nc3ccccc32)cc1 [Example 7, 3-Piperazin-1-yl-1-p-tolyl-1H-quinoxalin-2-one Maleate]
17 | – | 290 to 292 °C | O=c1c(N2CCNCC2)nc2ccccc2n1-c1ccccc1 (as salt: hydrochloride) [Example 2, 1-Phenyl-3-piperazin-1-yl-1H-quinoxalin-2-one Hydrochloride]
18 | – | 197 to 199 °C | Cc1ccc(-n2c(=O)c(N3CCNCC3)nc3ccccc32)cc1 (as salt: maleate) [Example 7, 3-Piperazin-1-yl-1-p-tolyl-1H-quinoxalin-2-one Maleate]
19 | 82 nM | 166 to 168 °C | Cc1ccc2nc(N3CCNCC3)c(=O)n(-c3ccccc3)c2c1 [Example 9, 7-Methyl-1-phenyl-3-piperazin-1-yl-1H-quinoxalin-2-one]
20 | 11 nM | – | O=c1c(N2CCNCC2)nc2ccccc2n1-c1ccccc1F [Example 3, 1-(2-Fluoro-phenyl)-3-piperazin-1-yl-1H-quinoxalin-2-one Hydrochloride]
21 | 27 nM | 151 to 152 °C | O=c1c(N2CCCNCC2)nc2cc(F)ccc2n1-c1ccccc1 [Example 14, 3-[1,4]Diazepan-1-yl-6fluoro-1-phenyl-1H-quinoxalin-2-one]
